Reference: patent US20080200530A1 (priority 2005, published 2008)

How the values were obtained:
[1] = system: JC virus infection of human glial cells; conditions: Elphick et al., Science (2004); cited from earlier work
[2] = molecular target: T1, endogenous human 5-HT2C receptor (Homo sapiens, UniProt P28335)
T1 sequence (P28335 33-458): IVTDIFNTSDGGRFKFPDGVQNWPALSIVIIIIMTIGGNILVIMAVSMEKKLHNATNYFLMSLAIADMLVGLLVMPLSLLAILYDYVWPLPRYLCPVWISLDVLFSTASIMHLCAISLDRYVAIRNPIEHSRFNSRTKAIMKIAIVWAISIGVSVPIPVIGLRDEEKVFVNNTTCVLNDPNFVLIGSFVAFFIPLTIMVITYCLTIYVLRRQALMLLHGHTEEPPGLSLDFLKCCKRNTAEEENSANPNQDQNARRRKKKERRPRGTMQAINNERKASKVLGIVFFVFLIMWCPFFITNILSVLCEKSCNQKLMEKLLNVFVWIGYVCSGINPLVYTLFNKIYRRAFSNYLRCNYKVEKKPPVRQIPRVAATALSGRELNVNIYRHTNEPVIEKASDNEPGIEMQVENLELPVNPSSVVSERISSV

[3] = system: DOI-induced hypolocomotion; test: Attenuation of DOI-induced hypolocomotion in rats; format: in vivo, rat; conditions: 50 μmol/kg p.o., 60 min before DOI 0.3 mg/kg s.c.
Procedure: In this Example, compounds of the invention, such as Compound 1 and Compound 26, were tested for inverse agonist activity by determining whether these compounds could attenuate DOI-induced hypolocomotion in rats in a novel environment. DOI is a potent 5HT2A/5HT2C receptor agonist that crosses the blood-brain barrier.
Male Sprague-Dawley rats (Harlan, San Diego, Calif.) weighing between 200-300 g were used for all tests. Rats were housed three to four per cage. These rats were naive to experimental testing and drug treatment. Rats were handled one to three days before testing to acclimate them to experimental manipulation. Rats were fasted overnight prior to testing.
(R)-DOI HCl (C11H16INO2HCl) was obtained from Sigma-Aldrich, and was dissolved in 0.9% saline. […]
The “Motor Monitor” (Hamilton-Kinder, Poway, Calif.) was used for all activity measurement. This apparatus recorded rears using infrared photobeams. […]
In determining the effects of compounds of the invention on DOI-induced hypoactivity, animals were first injected with vehicle or the compound of the invention (50 μmol/kg) in their home cages. […] 10 min after DOI administration, animals were placed into the activity apparatus and rearing activity was measured for 10 minutes.
Results (total rears over 10 minutes) were analyzed by t-test. […]

5HT2A receptor = molecular target: T2, 5HT2A receptor (Rattus norvegicus, UniProt P14842); test: 125I-LSD displacement from brain sections, autoradiography, cortex; format: binding, Sprague-Dawley rats; conditions: 1 micromolar compound, 1 nanomolar 125I-LSD
T2 construct: from tissue; host or cells: Sprague-Dawley rat brain, horizontal cryostat sections (cerebral cortex)
T2 sequence (P14842 whole entry): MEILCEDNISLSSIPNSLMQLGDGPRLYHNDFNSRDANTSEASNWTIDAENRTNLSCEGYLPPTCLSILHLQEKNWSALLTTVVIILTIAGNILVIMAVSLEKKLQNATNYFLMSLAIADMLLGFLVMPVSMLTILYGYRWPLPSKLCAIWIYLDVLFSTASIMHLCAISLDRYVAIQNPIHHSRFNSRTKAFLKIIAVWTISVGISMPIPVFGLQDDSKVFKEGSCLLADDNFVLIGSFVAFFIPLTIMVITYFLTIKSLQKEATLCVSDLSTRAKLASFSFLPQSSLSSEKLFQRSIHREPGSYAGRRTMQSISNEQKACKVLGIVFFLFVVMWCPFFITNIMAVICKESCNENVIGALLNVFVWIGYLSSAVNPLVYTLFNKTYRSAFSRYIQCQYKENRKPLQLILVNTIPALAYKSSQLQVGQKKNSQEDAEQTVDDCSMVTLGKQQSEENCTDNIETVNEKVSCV

O=C(c1ccc(F)cc1)C1CCN(CCn2c(=O)[nH]c3ccccc3c2=O)CC1 [ketanserin]
JC virus infection of human glial cells [1]: inhibited

CN1CCN2c3ccccc3Cc3ccccc3C2C1 (stereo not shown) [mianserin]
inhibition of serotonin-stimulated [35S]GTPγS binding ([2]; 30 μM mianserin): inhibits this response
effect on basal constitutive binding of [35S]GTPγS ([2]; no agonist): partial inverse agonist

Cc1nc2sccn2c(=O)c1CCN1CCC(=C(c2ccc(F)cc2)c2ccc(F)cc2)CC1 [Ritanserin]
JC virus infection of human glial cells [1]: inhibited

COc1ccc(NC(=O)Nc2ccc(Cl)cc2)cc1-c1c(Cl)cnn1C [Compound 26, 1-[3-(4-Chloro-2-methyl-2H-pyrazol-3-yl)-4-methoxy-phenyl]-3-(4-chloro-phenyl)-urea]
effect on DOI-induced hypolocomotion (total rears over 10 minutes) [3]: attenuated DOI-induced hypolocomotion

COc1ccc(NC(=O)Nc2ccc(Cl)cc2)cc1-c1c(Br)cnn1C [Compound 1, 1-[3-(4-Bromo-2-methyl-2H-pyrazol-3-yl)-4-methoxy-phenyl]-3-(4-chloro-phenyl)-urea]
effect on DOI-induced hypolocomotion (total rears over 10 minutes) [3]: attenuated DOI-induced hypolocomotion

COc1ccc(OC(=O)Nc2cccc(-c3c(Br)cnn3C)c2)cc1 [Compound S-1610, [3-(4-Bromo-2-methyl-2H-pyrazol-3-yl)-phenyl]-carbamic acid 4-methoxy-phenyl ester]
displacement of 125I-LSD from the cortex (5HT2A) (5HT2A receptor): selectively displace
